Experimental findings from patent US20050080102A1, “Compound and uses thereof” (priority 2002, published 2005) are described below.

Common to all, as to format: biochemical
For experiment [1], the system named is caspase-3 (procaspase-3 cleavage). The experiment can be described thus: Caspase-3 activation reconstituted with HeLa S-100 fractions (Q-ft, Q30, Q100) and purified/recombinant proteins. An excerpt: To study the mechanism, HeLa cell S-100 extracts were fractionated using an anion exchange column. […] The first fraction, Q-ft, flew through the column and contained cytochrome c (Liu et al., Cell 86:147 (1996)). The second fraction, Q30, was eluted with 0.3 M NaCl and contained Apaf-1 (Zou et al., Cell 90:405 (1997)) and procaspase-9 (Li et al., Cell 91:479 (1997)). The third fraction, Q100, was eluted with 1 M NaCl. These three fractions were then used in different combinations to search for proteins that might mediate the PETCM effect.
The inhibitory activity was assayed by adding column fractions to the mixture of Q30/cytochrome c/PHAP/dATP.
Ten ml of HeLa S-100 (˜60 mg total protein) was loaded on a 1-ml HiTrap Q column (Pharmacia) pre-equilibrated with Buffer A (i.e., 20 mM Hepes-KOH, pH7.5, 10 mM KCl, 1.5 mM Mg Cl2, 1 mM sodium EDTA and 1 mM sodium EGTA, 1 mM dithiothreitol, and 0.1 mM PMSF). The flowthrough (Q-ft) was collected. After being washed with 10-ml of Buffer A, the column was eluted with 10-ml of Buffer A containing 300 mM NaCl, and the eluted protein peak ([…]) was collected (Q30). Subsequently, the column was eluted with Buffer A containing 1 M NaCl, and the protein peak (−3 ml) was collected and dialyzed for overnight (Q100).

The test system of experiment [2] is apoptosome (Apaf-1/caspase-9). Put plainly: Apoptosome formation and caspase-9 activation in reconstituted system (Q30, cytochrome c, dATP). As to the method:
FIG. 5 illustrates regulation of apoptosome by ProT and PHAP. FIG. 5(A) illustrates that PHAP accelerates caspase-3 activation after PETCM antagonizes the inhibitory activity of ProT. FIG. 5(B) illustrates that ProT inhibits apoptosome formation, and PETCM can antagonize the inhibitory activity. FIG. 5(C) illustrates that PHAP enhances caspase-9 activation. Apoptosome formation was measured as described in FIG. 1.
Subsequently, regulation of apoptosome by these players was tested. […] PETCM promotes caspase-3 activation by removing the inhibition of ProT on apoptosome formation, allowing PHAPs to stimulate apoptosome activity.

The subject of another experiment is Apaf-1 (apoptosome). Put plainly: Apoptosome formation in HeLa cell S-100, gel-filtration chromatography and Western blot against Apaf-1. As to the method:
In order to find out how this small molecule ([…]) promotes activation of caspase-3, apoptosome formation was analyzed using gel-filtration chromatography followed by Western blot analysis against Apaf-1 (Zou H et al., Cell 90:405-413, 1997). Other methods known to those of ordinary skill in the art may also be used for such an analysis.

Experiment [3] has as its system caspase-3. The experiment can be described thus: Caspase-3 activation in extracts from RNAi treated HeLa cells. To be noted: extracts from control RNAi treated-cells (FIG. 6D). An excerpt:
(SEQ ID NO:7) and […] (SEQ ID NO:9) and […]

In experiment [4] the test system is caspase-3. The experiment can be described thus: Caspase-3 activation in HeLa cell lysate/S-100 (Ac-DEVD-pNA cleavage, HTS). On the procedure: Other means of measuring caspoase-3 activation are also encompassed herein and are readily known to those of ordinary skill in the art.
With respect to Example I, the high throughput screening (HTS) was essentially a cell-lysate assay in which the endpoint, activation of caspase-3, was monitored by the cleavage of a calorimetric substrate. HeLa cell lysate was prepared by Cellex Bioscience (Minneapolis, Minn.). This lysate was thawed and centrifuged before use (15K rpm in a JA20 Beckman rotor, Fullerton, Calif.). […] The plates were allowed to incubate for three to four hours. When 90% of the Ac-DEVD-pNA (Bachem L1945) was converted by the activated capsase-3 in the control plate, the screening plates were read again at 390 nm. The change in absorbency was scaled to the fully-activated control (cytochrome c) and the negative control (no compound).

Experiment [5] concerns extracts from human tumor cells (caspase activation). The experiment can be described thus: Response of extracts from a battery of human tumor cells to PETCM. To be noted: colon cancer, prostate cancer, promyelocytic leukemia, T cell leukemia, bone marrow leukemia, malignant melanoma, lymphoma, glioblastoma cells. As to the method: Extracts from a battery of human tumor cells were also screened for their response to PETCM. It was determined that many human cancer lines, including colon cancer, prostate cancer, promyelocytic leukemia, T cell leukemia, bone marrow leukemia, malignant melanoma, lymphoma, and glioblastoma cells were responsive. […] PETCM and the PETCM-stimulated caspase activation pathway are therefore of fundamental and clinical significance with respect to malignant mammalian cells. Thus, the present invention encompasses a method of stimulating caspase activity in malignant cells comprising exposing said cells to PETCM or administering PETCM to said cells.

As for “PHAPI: recombinant His-tagged PHAPI, putative tumor suppressor protein that stimulates caspase activation”, the caspase-3 activation entry in experiment [1] (Q30 fraction plus cytochrome c and 10 μM dATP (FIG. 5A, lane 2)) is recorded as “stimulated caspase-3 activation”. For the same compound, the apoptosome formation result in experiment [2] (presence of PHAPI) is listed as “did not affect the efficiency of apoptosome formation”. Moreover, in experiment [2] (presence of PHAPI (FIG. 5C)), the caspase-9 activation result is recorded as “more activated caspase-9 was observed”.

Take `Nc1ncnc2c1ncn2[C@H]1C[C@H](O)[C@@H](COP(=O)(O)OP(=O)(O)OP(=O)(O)O)O1` [dATP, 2′-deoxyadenosine-5′-triphosphate, reference compound]: the caspase-3 activation entry is given as “little caspase-3 activation was observed” in experiment [1] (Q-ft + Q30 + Q100, 10 μM dATP (lane 3)) and “robust caspase-3 activation” in experiment [1] (Q-ft + Q30 + Q100, 1 mM dATP (lane 2)). Further, in the experiment on Apaf-1 (apoptosome) (S-100 incubated with 1 mM dATP), the “apoptosome formation (Apaf-1 shift)” value is “most of the Apaf-1 was shifted to the size of ˜1 million Dalton”.

Take `OC(Cc1ccncc1)C(Cl)(Cl)Cl` (stereo not drawn) [PETCM, alpha-(trichloromethyl)-4-Pyridineethanol]: the “caspase-3 activation in extracts, PETCM requirement” value in the experiment on caspase-3 [3] is “responsive to PETCM”. The “reversal of Q100 suppression of PHAP stimulatory activity” value in experiment [1] (PHAP with Q100 added back (FIG. 4A, lanes 5-6)) is reported as “the suppression was reversed by the addition of PETCM”. For the same compound, the caspase-3 activation entry is “the inhibitory effect of ProT was reversed” in experiment [1] (Q30, cytochrome c, 10 μM dATP, PHAPI, ProT, with PETCM (FIG. 5A, lane 4)); “caspase-3 activation was observed at 10 μM dATP” in experiment [1] (Q-ft + Q30 + Q100, 0.2 mM PETCM with 10 μM dATP (lane 5)); “No caspase-3 activation was seen” in experiment [1] (Q-ft + Q30 + Q100, PETCM, dATP completely omitted (lane 4)). Further, the apoptosome formation result in experiment [2] (FIG. 5B, ProT plus PETCM) is given as “relieved the blockage”. Moreover, the “efficiency in activating caspase-3 compared with dATP” value with caspase-3 [4] (0.2 mM PETCM vs 1.0 mM dATP) was “more efficient in activating caspase-3 than 1.0 mM dATP”. In the experiment on caspase-3 [4] (FIG. 1(B), increasing amounts of PETCM), the “DEVD activity of HeLa S-100” value was “stimulates DEVD activity of HeLa S-100 in a dose-dependent manner”. The “efficiency of apoptosome formation compared with dATP” value in the experiment with Apaf-1 (apoptosome) (0.2 mM PETCM vs 1 mM dATP) was “better than 1 mM dATP”. In addition, in the experiment with Apaf-1 (apoptosome) (S-100 incubated with 0.2 mM PETCM), the “apoptosome formation (Apaf-1 shift)” value is recorded as “Apaf-1 was also shifted to the position of apoptosome”. In addition, the “response of human cancer line extracts to PETCM” value in experiment [5] is on record as “responsive”.
